Experimental data from publication PMC3566223 (Cancer prevention research (Philadelphia, Pa.), 2012).
Blank lines part the entries; values can stand above or below the molecule they belong to.

Experiments:
[1] = tested on: Apc^Min mouse model of inherited colorectal cancer; details: dietary curcumin; cited from earlier work
[2] = Curcuminoid levels in colonic mucosa biopsies; format: in vivo, human; details: for Mucosal level, mean concentration ± SEM, unwashed, surgical biopsies / Mucosal level, mean concentration ± SEM, washed, surgical biopsies / Mucosal level, mean concentration ± SEM, unwashed, endoscopy biopsies / Mucosal level, mean concentration ± SEM, washed, endoscopy biopsies: patients, oral Curcumin C3 complex 2.35 g once daily 14 days; for Mucosal level, mean concentration ± SEM, unwashed, surgical biopsies / Mucosal level, mean concentration ± SEM, washed, surgical biopsies: n=5; for Mucosal level, mean concentration ± SEM, unwashed, endoscopy biopsies / Mucosal level, mean concentration ± SEM, washed, endoscopy biopsies: n=30
[3] = Curcuminoid levels in 24 h urine collection; format: in vivo, human; details: 24 h urine between last two doses
[4] = cited from earlier work
[5] = Pre- and post-trial self-reported questionnaire; format: in vivo, human; details: 24 participants completing the 2 week course; period of administration
[6] = Curcuminoid levels in plasma; format: in vivo, human; details: of 24 participants
[7] = Adverse event monitoring; format: in vivo, human
[8] = one participant, right hemi-colectomy, no bowel preparation of biopsied area
[9] = AEs possibly or probably attributable

Surface curcumin level, single participant [2, 8]: 551.1 µg/g
Tissue curcumin level, single participant [2, 8]: 228.3 µg/g
Mean pre-wash curcumin level, left-sided paired endoscopic biopsies ([2]; oral Curcumin C3 complex 2.35 g daily 14 days, paired left-sided, n=12 pairs): 9.0 µg/g
Mean pre-wash curcumin level, right-sided paired endoscopic biopsies ([2]; oral Curcumin C3 complex 2.35 g daily 14 days, paired right-sided, n=12 pairs): 35.4 µg/g
Decrease in tissue curcumin after consecutive washes ([2]; paired right-sided biopsy samples): 74%
Mucosal level, mean concentration ± SEM, unwashed, surgical biopsies [2]: 75.32 ± 39.71 µg/g
Mucosal level, mean concentration ± SEM, washed, surgical biopsies [2]: 12.50 ± 3.07 µg/g
Mucosal level, mean concentration ± SEM, unwashed, endoscopy biopsies [2]: 42.31 ± 23.68 µg/g
Mucosal level, mean concentration ± SEM, washed, endoscopy biopsies [2]: 19.91 ± 7.87 µg/g
Persistence of high curcumin levels in mucosa post-administration ([2]; time after last dose at which mucosa was biopsied): up to 40 h
Urine level, mean [3]: 27.0 ng/mL
Urine curcumin level, range ([3]; 12 participants with quantifiable levels): 0.67 to 503.3 ng/mL
Experienced abdominal pain, post-trial responses [5]: 21 % participants
Experienced bowel incontinence, post-trial responses [5]: 12 % participants
Experienced constipation, post-trial responses [5]: 13 % participants
Experienced diarrhoea, post-trial responses [5]: 38 % participants
Quantifiable in plasma (number of participants) [6]: 4
SMILES: COc1cc(/C=C/C(=O)CC(=O)/C=C/c2ccc(O)c(OC)c2)ccc1O [Curcumin, curcumin]
Reduction of adenoma formation [1]: 39-64%
Lipophilicity [4]: highly lipophilic
Total gastrointestinal events, number of patients ([7]; 26 patients commenced curcumin): 6
Abdominal pain, number of events [7, 9]: 3
Bloating, number of events [7, 9]: 1
Diarrhoea, number of events [7, 9]: 3
Dyspepsia, number of events [7, 9]: 1
Flatulence, number of events [7, 9]: 1
Nausea, number of events [7, 9]: 2
Vomiting, number of events [7, 9]: 2
Total gastrointestinal events, number of events ([7]; AEs possibly or probably attributable, Curcumin C3 complex 2.35 g daily 14 days): 13
Serious adverse events (SAEs) attributable to curcumin ([7]; Curcumin C3 complex 2.35 g daily 14 days): no serious adverse events
Abdominal pain, grade ([7]; NCI-CTC v3.0 grade): 1,2
Bloating, grade ([7]; NCI-CTC v3.0 grade): 2
Diarrhoea, grade ([7]; NCI-CTC v3.0 grade): 1
Dyspepsia, grade ([7]; NCI-CTC v3.0 grade): 1
Flatulence, grade ([7]; NCI-CTC v3.0 grade): 1
Nausea, grade ([7]; NCI-CTC v3.0 grade): 1,2
Total gastrointestinal events, grade ([7]; NCI-CTC v3.0 grade): 1 - 2
Vomiting, grade ([7]; NCI-CTC v3.0 grade): 1,2
Abdominal pain, number of patients ([7]; in vivo): 3
Bloating, number of patients ([7]; in vivo): 1
Diarrhoea, number of patients ([7]; in vivo): 3
Dyspepsia, number of patients ([7]; in vivo): 1
Flatulence, number of patients ([7]; in vivo): 1
Nausea, number of patients ([7]; in vivo): 2
Vomiting, number of patients ([7]; in vivo): 2

Detectable in mucosal samples (number of biopsies) ([2]; of 35 mucosal samples, oral Curcumin C3 complex 2.35 g daily 14 days): 27 out of 35
Mucosal level, mean concentration ± SEM, unwashed, surgical biopsies [2]: 10.42 ± 6.52 µg/g
Mucosal level, mean concentration ± SEM, washed, surgical biopsies [2]: 1.27 ± 0.42 µg/g
Mucosal level, mean concentration ± SEM, unwashed, endoscopy biopsies [2]: 6.33 ± 3.75 µg/g
Mucosal level, mean concentration ± SEM, washed, endoscopy biopsies [2]: 4.03 ± 1.69 µg/g
SMILES: COc1cc(/C=C/C(=O)CC(=O)/C=C/c2ccc(O)cc2)ccc1O [Desmethoxycurcumin, desmethoxycurcumin]
